Test [1] addresses T1, HCV polymerase (NS5B) type 1a (Hepatitis C virus genotype 1a, UniProt P26664).
T1 construct: made in house; host or cells: Escherichia coli (by the 'similar method' of the 1b enzyme)
Briefly: Assay of enzyme (HCV polymerase) inhibitory activity, type 1a enzyme. The note with it: HCV polymerase inhibitory activity IC50, 1a, type 1a enzyme. It counts as biochemical, HCV type 1a (cloned from the blood of patients). An outline of the steps: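 IC50 values derive from radioactivity of newly synthesized RNA with versus without test compound. The enzyme was C-terminally truncated type 1a NS5B, 1.5 μg/ml, run 60 min at 25° C with 3H-UTP-labelled nucleotides.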

Test [2] addresses T2, HCV polymerase (NS5B) type 1b (Hepatitis C virus genotype 1b, UniProt P26663).
T2 construct: a region encoding NS5B (J Virol 1991 March, 65(3), 1105-13, 544 amino acids after deletion of 47 amino acids on the C-terminal); 6xHis (C); made in house; host or cells: Escherichia coli
Briefly: Assay of enzyme (HCV polymerase) inhibitory activity, type 1b enzyme. It counts as biochemical, HCV BK strain (type 1b). The note with it: HCV polymerase inhibitory activity IC50, 1b, type 1b enzyme. The procedure, abridged: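 Polymerase activity was followed as radiolabelled UTP incorporation by E. coli-expressed, His-tagged NS5B of HCV type 1b lacking its last 47 residues. Conditions: 2 μM UTP, 50 μM other NTPs, Mg2+ buffer at pH 7.5, 25 °C for 60 min. Inhibition relative to compound-free reactions gave IC50.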

Molecules are shown by their SMILES. A value given as a limit tells only on which side of the number the result lay.

What is called IC50 is the midpoint of a concentration-inhibition curve. A high value points to lower potency. For the molecule `O=C(NCc1ccc(OC(F)F)cc1)[C@H]1CN(c2nc3ncncc3s2)CCN1S(=O)(=O)c1ccc(OC(F)F)cc1` [Example 956, (R)-1-(4-difluoromethoxy-benzenesulfonyl)-4-thiazolo[4,5-d]pyrimidin-2-yl-piperazine-2-carboxylic acid 4-difluoromethoxy-benzylamide], the IC50 in test [1] and in test [2] was under 100 nM throughout.
`Cn1ncc2sc(N3CCN(S(=O)(=O)c4ccc(OC(F)(F)F)cc4)[C@@H](C(=O)NCc4ccc(OC(F)(F)F)cc4)C3)nc2c1=O` [Example 957, (R)-4-(5-methyl-4-oxo-4,5-dihydro-thiazolo[4,5-d]pyridazin-2-yl)-1-(4-trifluoromethoxy-benzenesulfonyl)-piperazine-2-carboxylic acid 4-trifluoromethoxy-benzylamide]: the IC50 in test [1] and in test [2] was under 100 nM each time.
Take `CCN(C)c1ccc(CNC(=O)[C@H]2CN(c3nc4nc(Cl)ncc4s3)CCN2S(=O)(=O)c2ccc(OC(F)(F)F)cc2)cc1` [Example 958, (R)-4-(5-chloro-thiazolo[4,5-d]pyrimidin-2-yl)-1-(4-trifluoromethoxy-benzenesulfonyl)-piperazine-2-carboxylic acid 4-(ethyl-methyl-amino)-benzylamide]: the IC50 in test [1] and in test [2] was under 100 nM in each case.
Take `O=C(NCc1ccc(OC(F)(F)F)cc1)[C@H]1CN(c2nc3nc(Cl)ncc3s2)CCN1S(=O)(=O)c1ccc(OC(F)(F)C(F)F)cc1` [Example 959, (R)-4-(5-chloro-thiazolo[4,5-d]pyrimidin-2-yl)-1-[4-(1,1,2,2-tetrafluoro-ethoxy)-benzenesulfonyl]-piperazine-2-carboxylic acid 4-trifluoromethoxy-benzylamide]: the IC50 in test [1] and in test [2] was under 100 nM throughout.
Take `O=C(NCc1ccc(OC(F)(F)F)cc1)[C@H]1CN(c2nc3ncncc3s2)CCN1S(=O)(=O)c1ccc(OC(F)(F)C(F)F)cc1` [Example 960, (R)-1-[4-(1,1,2,2-tetrafluoro-ethoxy)-benzenesulfonyl]-4-thiazolo[4,5-d]pyrimidin-2-yl-piperazine-2-carboxylic acid 4-trifluoromethoxy-benzylamide]: the IC50 in test [1] and in test [2] was under 100 nM in each case.
Take `O=C(NCc1ccc(OC(F)(F)F)cc1)[C@H]1CN(c2nc3nc(C(F)(F)F)ncc3s2)CCN1S(=O)(=O)c1ccc(OC(F)(F)F)cc1` [Example 961, (R)-1-(4-trifluoromethoxy-benzenesulfonyl)-4-(5-trifluoromethyl-thiazolo[4,5-d]pyrimidin-2-yl)-piperazine-2-carboxylic acid 4-trifluoromethoxy-benzylamide]: the IC50 in test [1] and in test [2] was under 100 nM in each case.
As to `Nc1nc(Cl)nc2nc(N3CCN(S(=O)(=O)c4ccc(OC(F)(F)F)cc4)[C@@H](C(=O)NCc4ccc(OC(F)(F)F)cc4)C3)sc12` [Example 962, (R)-4-(7-amino-5-chloro-thiazolo[4,5-d]pyrimidin-2-yl)-1-(4-trifluoromethoxy-benzenesulfonyl)-piperazine-2-carboxylic acid 4-trifluoromethoxy-benzylamide], the IC50 in test [1] and in test [2] was under 100 nM each time.
Regarding `O=C(NCc1ccc(OC(F)(F)F)cc1)[C@H]1CN(c2nc3nc(Cl)[nH]c(=O)c3s2)CCN1S(=O)(=O)c1ccc(OC(F)(F)F)cc1` [Example 963, (R)-4-(5-chloro-7-oxo-6,7-dihydro-thiazolo[4,5-d]pyrimidin-2-yl)-1-(4-trifluoromethoxy-benzenesulfonyl)-piperazine-2-carboxylic acid 4-trifluoromethoxy-benzylamide], the IC50 in test [1] and in test [2] was under 100 nM each time.
For `N#Cc1ncc2sc(N3CCN(S(=O)(=O)c4ccc(OC(F)(F)F)cc4)[C@@H](C(=O)NCc4ccc(OC(F)(F)F)cc4)C3)nc2n1` [Example 964, (R)-4-(5-cyano-thiazolo[4,5-d]pyrimidin-2-yl)-1-(4-trifluoromethoxy-benzenesulfonyl)-piperazine-2-carboxylic acid 4-trifluoromethoxy-benzylamide], the IC50 in test [1] and in test [2] was under 100 nM in each case.
Consider `COc1ccc(CNC(=O)[C@H]2CN(c3nc4nc(Cl)ncc4s3)CCN2S(=O)(=O)c2ccc(OC(F)(F)F)cc2)cc1` [Example 965, (R)-4-(5-chloro-thiazolo[4,5-d]pyrimidin-2-yl)-1-(4-trifluoromethoxy-benzenesulfonyl)-piperazine-2-carboxylic acid 4-methoxy-benzylamide], for which the IC50 in test [1] and in test [2] was under 100 nM in each case.
As for `O=C(NCc1ccc(OCF)cc1)[C@H]1CN(c2nc3nc(Cl)ncc3s2)CCN1S(=O)(=O)c1ccc(OC(F)(F)F)cc1` [Example 966, (R)-4-(5-chloro-thiazolo[4,5-d]pyrimidin-2-yl)-1-(4-trifluoromethoxy-benzenesulfonyl)-piperazine-2-carboxylic acid 4-fluoromethoxy-benzylamide], the concentration for half-maximal inhibition (IC50) in test [1] and in test [2] was under 100 nM throughout.
Turning to `O=C(NCc1ccc(OCF)cc1)[C@H]1CN(c2nc3ncncc3s2)CCN1S(=O)(=O)c1ccc(OC(F)(F)F)cc1` [Example 967, (R)-4-thiazolo[4,5-d]pyrimidin-2-yl-1-(4-trifluoromethoxy-benzenesulfonyl)-piperazine-2-carboxylic acid 4-fluoromethoxy-benzylamide], the IC50 in test [1] and in test [2] was under 100 nM each time.
With `O=C(NCc1ccc(OC(F)F)cc1)[C@H]1CN(c2nc3nc(Cl)ncc3s2)CCN1S(=O)(=O)c1ccc(C(F)(F)F)cc1` [Example 968, (R)-4-(5-chloro-thiazolo[4,5-d]pyrimidin-2-yl)-1-(4-trifluoromethyl-benzenesulfonyl)-piperazine-2-carboxylic acid 4-difluoromethoxy-benzylamide], the IC50 in test [1] and in test [2] was under 100 nM each time.
Turning to `O=C(NCc1ccc(OC(F)F)cc1)[C@H]1CN(c2nc3ncncc3s2)CCN1S(=O)(=O)c1ccc(C(F)(F)F)cc1` [Example 969, (R)-4-thiazolo[4,5-d]pyrimidin-2-yl-1-(4-trifluoromethyl-benzenesulfonyl)-piperazine-2-carboxylic acid 4-difluoromethoxy-benzylamide], the IC50 in test [1] and in test [2] was under 100 nM throughout.
`Cc1ncc2sc(N3CCN(S(=O)(=O)c4ccc(C(F)(F)F)cc4)[C@@H](C(=O)NCc4ccc(OC(F)F)cc4)C3)nc2n1` [Example 970, (R)-4-(5-methyl-thiazolo[4,5-d]pyrimidin-2-yl)-1-(4-trifluoromethyl-benzenesulfonyl)-piperazine-2-carboxylic acid 4-difluoromethoxy-benzylamide]: the IC50 in test [1] and in test [2] was under 100 nM in each case.
As for `O=C(NCc1ccc(C2CC2)cc1)[C@H]1CN(c2nc3nc(Cl)ncc3s2)CCN1S(=O)(=O)c1ccc(OC(F)(F)F)cc1` [Example 971, (R)-4-(5-chloro-thiazolo[4,5-d]pyrimidin-2-yl)-1-(4-trifluoromethoxy-benzenesulfonyl)-piperazine-2-carboxylic acid 4-cyclopropyl-benzylamide], the IC50 in test [1] and in test [2] was under 100 nM each time.
With `O=C(NCc1ccc(OC(F)(F)F)cc1)[C@H]1CN(c2nc3nc(F)ncc3s2)CCN1S(=O)(=O)c1ccc(OC(F)(F)F)cc1` [Example 972, (R)-4-(5-fluoro-thiazolo[4,5-d]pyrimidin-2-yl)-1-(4-trifluoromethoxy-benzenesulfonyl)-piperazine-2-carboxylic acid 4-trifluoromethoxy-benzylamide], the IC50 in test [1] and in test [2] was under 100 nM throughout.
`CC(C)Nc1ncc2sc(N3CCN(S(=O)(=O)c4ccc(OC(F)(F)F)cc4)[C@@H](C(=O)NCc4ccc(OC(F)(F)F)cc4)C3)nc2n1` [Example 973, (R)-4-(5-isopropylamino-thiazolo[4,5-d]pyrimidin-2-yl)-1-(4-trifluoromethoxy-benzenesulfonyl)-piperazine-2-carboxylic acid 4-trifluoromethoxy-benzylamide]: the IC50 in test [1] and in test [2] was under 100 nM in each case.
For `CCN(CC)c1nc(Br)nc2nc(N3CCN(S(=O)(=O)c4ccc(C(F)(F)F)cc4)[C@@H](C(=O)NCc4ccc(OC(F)(F)F)cc4)C3)sc12` [Example 974, (R)-4-(5-bromo-7-diethylamino-thiazolo[4,5-d]pyrimidin-2-yl)-1-(4-trifluoromethyl-benzenesulfonyl)-piperazine-2-carboxylic acid 4-trifluoromethoxy-benzylamide], the IC50 in test [1] and in test [2] was over 1000 nM throughout.
Consider `O=C(NCc1ccc(OC(F)(F)F)cc1)[C@H]1CN(c2nc3nc(C4CC4)ncc3s2)CCN1S(=O)(=O)c1ccc(OC(F)(F)F)cc1` [Example 975, (R)-4-(5-cyclopropyl-thiazolo[4,5-d]pyrimidin-2-yl)-1-(4-trifluoromethoxy-benzenesulfonyl)-piperazine-2-carboxylic acid 4-trifluoromethoxy-benzylamide], for which the IC50 in test [1] and in test [2] was under 100 nM each time.
